From patent publication EP0605371A1 (priority 1992, dated 1994)

Tests used:
[1] = system: patients with systemic scleroderma; assay type: in vivo
Procedure: (§1) Treatment with melatonin was administered to ambulant patients with various forms of systemic scleroderma, in various stages of the disease, and to patients with sarcoidosis.
(§2) The patients and methods were as follows:
(§3) Ten patients with systemic scleroderma in an active phase and four patients with pulmonary sarcoidosis were selected.
The clinical characteristics of the patients with systemic scleroderma and the level of activity and severity of the disease were assessed with the aid of a skin score (cf. annexe) and information obtained from lung function tests, a chest X-ray, pulmonary CAT and numerous laboratory tests (antinuclear antibodies (A), A to the extractable nuclear antigen Scl-70, antinucleolar A, anti-DNA A, antimicrosome A, anticentromeric A, ESR, ACE, CRP, gamma globulins).
To assess the effects of the treatment, the skin-score, ESR, ACE, CRP were determined monthly, the lung function tests were performed every 2 months, and chest X-ray and/or thoracic CAT carried out at the end of a 4-month course of treatment.
(§4) When the clinical evaluation had been completed and after all the laboratory tests had been performed, the patients with systemic scleroderma and sarcoidosis received in a daily dose of 20 mg taken by mouth as a single dose between 18.00 and 20.00 hours. This timing was chosen with the aim of interfering as little as possible with the circadian rhythm of endogenous melatonin secretion.
The clinical investigations and laboratory tests performed at the start of the combined treatment therefore served both as a control on the treatment with hydroxychloroquine and to provide the base values for the tests performed during the treatment with melatonin.
(§5) The other patients with systemic scleroderma and those with sarcoidosis received only melatonin.

[2] = system: patients with pulmonary sarcoidosis; experiment: Four-month oral melatonin treatment of patients with pulmonary sarcoidosis; assay type: in vivo
Procedure: as §1, §2, §3
The diagnosis was made on the basis of histological tests performed on biopsy samples, the BAL for the T-lymphocyte count and scintigraphy with gallium-67. Overall lung function tests, a chest X-ray and numerous laboratory tests (ACE, blood calcium, urinary calcium, ESR, etc.) were also performed.
The effects of the treatment were evaluated monthly on the basis of any changes in lung function and ACE levels and at the end of the four-month period on the basis of any changes in the radiological findings.
as §4, §5

cancer patients = cancer patients no longer responsive to conventional therapies; cited from earlier work
[3] = system: patients with Parkinson's disease; details: cited from earlier work
[4] = 20 mg melatonin per day for four months

## COc1ccc2[nH]cc(CCNC(C)=O)c2c1 [melatonin, 5-methoxy-N-acetyltryptamine]
[1]; [4]
  CRP or gamma globulin values: No significant changes
  subjective respiratory disturbances: marked subjective reduction
[1]; 20 mg melatonin per day for four months, ten patients
  lung function tests: significant improvement in nine of the ten patients
[1]; 20 mg melatonin per day for four months, ten patients (FIG.1)
  skin score: highly positive results
[1]; after 4 months of treatment, all patients
  chest X-ray: No significant changes were found in any of the patients
[1]; throughout the course of treatment, 20 mg per day
  ESR: It was not possible to demonstrate that the hormone treatment had an effect on this parameter
[2]; end of the four-month course
  radiological investigation (changes affecting the hilum and the pulmonary parenchyma): definitive reduction
[2]; end of the four-month course, four patients
  lung function tests: the findings in three patients had returned to normal and the fourth patient showed marked improvement
[2]; end of the four-month course, on average
  fall of BAL lymphocyte count: 70%
[2]; monthly determination, 20 mg per day, all cases (FIG.2)
  ACE: the values gradually returned to normal
Cancer patients
  patients' general condition and disease course: the patients' general condition showed improvement and the disease was temporarily stabilized
[3]; daily doses of up to 6 g
  demonstrable advantages: no demonstrable advantages
[3]; human, in vivo
  adverse effects: no adverse effects
